The record followed here is ChEMBL document CHEMBL4229568, “Discovery of natural flavonoids as activators of Nrf2-mediated defense system: Structure-activity relationship and inhibition of intracellular oxidative insults” (Bioorg Med Chem, 2018).

In data set [1] the target is T1, Nuclear factor erythroid 2-related factor 2 (Mus musculus) (UniProt Q60795).
T1 sequence (whole entry): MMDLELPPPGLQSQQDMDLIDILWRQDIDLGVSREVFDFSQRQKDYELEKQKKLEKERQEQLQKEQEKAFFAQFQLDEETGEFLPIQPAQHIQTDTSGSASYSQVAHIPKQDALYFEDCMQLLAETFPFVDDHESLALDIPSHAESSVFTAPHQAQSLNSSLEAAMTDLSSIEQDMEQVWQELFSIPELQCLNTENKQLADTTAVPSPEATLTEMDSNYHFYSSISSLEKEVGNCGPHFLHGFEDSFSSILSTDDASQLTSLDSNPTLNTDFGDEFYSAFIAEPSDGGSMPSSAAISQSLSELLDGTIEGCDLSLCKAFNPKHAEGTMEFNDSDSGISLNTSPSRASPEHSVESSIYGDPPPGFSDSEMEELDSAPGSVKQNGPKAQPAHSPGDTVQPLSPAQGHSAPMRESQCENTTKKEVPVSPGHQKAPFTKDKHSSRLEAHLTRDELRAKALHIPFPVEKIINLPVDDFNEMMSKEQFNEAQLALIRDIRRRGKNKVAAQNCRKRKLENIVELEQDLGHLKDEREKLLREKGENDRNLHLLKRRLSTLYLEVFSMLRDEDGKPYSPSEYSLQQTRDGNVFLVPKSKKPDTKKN
Nature of the data set: Activation of Nrf2 in mouse Heap1c1c7 cells assessed as induction of NAD(P)H:quinone reductase activity at 6.25 uM pretreated for 1 hr followed by co-treatment with PKC inhibitor Go6983 for 24 hrs. In kind it is cell-based.

The subject of data set [2] is BEAS-2B. Nature of the data set: Effect on reactive oxygen species production in human BEAS2B cells at 6.25 uM treated for 8 hrs. The data set is classed as ADME, cell-based.
The target in data set [3] is T2, Nuclear factor erythroid 2-related factor 2 (Homo sapiens) (UniProt Q16236).
T2 sequence (whole entry): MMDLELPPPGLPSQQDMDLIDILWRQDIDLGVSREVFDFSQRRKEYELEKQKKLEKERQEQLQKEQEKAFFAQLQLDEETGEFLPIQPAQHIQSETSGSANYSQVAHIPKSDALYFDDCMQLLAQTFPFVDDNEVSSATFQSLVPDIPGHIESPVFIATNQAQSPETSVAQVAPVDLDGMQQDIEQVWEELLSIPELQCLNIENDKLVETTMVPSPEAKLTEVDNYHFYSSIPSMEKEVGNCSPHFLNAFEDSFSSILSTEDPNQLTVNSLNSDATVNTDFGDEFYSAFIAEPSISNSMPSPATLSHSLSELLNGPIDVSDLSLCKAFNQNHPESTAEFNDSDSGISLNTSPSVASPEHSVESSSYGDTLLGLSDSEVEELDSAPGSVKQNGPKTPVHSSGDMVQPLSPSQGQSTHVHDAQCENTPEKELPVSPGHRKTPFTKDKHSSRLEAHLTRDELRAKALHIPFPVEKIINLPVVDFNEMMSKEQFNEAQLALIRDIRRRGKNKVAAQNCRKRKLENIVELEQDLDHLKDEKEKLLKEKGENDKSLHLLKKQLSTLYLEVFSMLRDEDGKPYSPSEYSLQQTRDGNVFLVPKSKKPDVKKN
The data set can be described thus: Activation of Nrf2 in human BEAS2B cells assessed as upregulation of NQO1 protein expression at 6.25 uM pretreated for 1 hr followed by co-treatment with PKC inhibitor Ro-31-8220 for 18 hrs by immunoblot analysis. In kind it is cell-based.

Data set [4] concerns the target T1, Nuclear factor erythroid 2-related factor 2 (Mus musculus). The data set can be described thus: Activation of Nrf2 in mouse Heap1c1c7 cells assessed as induction of NAD(P)H:quinone reductase activity at 6.25 uM pretreated for 1 hr followed by co-treatment with PI3K inhibitor LY294002 for 24 hrs. In kind it is cell-based.
Data set [5] deals with T2, Nuclear factor erythroid 2-related factor 2 (Homo sapiens). Nature of the data set: Activation of Nrf2 in human BEAS2B cells assessed as upregulation of NQO1 protein expression at 6.25 uM pretreated for 1 hr followed by co-treatment with PKC inhibitor Go6983 for 18 hrs by immunoblot analysis. In kind it is cell-based.
Data set [6] shares this target. Nature of the data set: Activation of Nrf2 in human BEAS2B cells assessed as upregulation of Nrf2 protein expression at 0.31 to 20 uM after 18 hrs by immunoblot analysis. In kind it is cell-based.
Data set [7] has the same target. Nature of the data set: Activation of Nrf2 in human MDA-MB-231 cells assessed as upregulation of Nrf2 protein expression after 16 hrs by immunoblot analysis. The data set is classed as cell-based. For orientation: Immunoblotting shows a protein as a band on a membrane.
Data set [8] deals with T1, Nuclear factor erythroid 2-related factor 2 (Mus musculus). Nature of the data set: Activation of Nrf2 in mouse Heap1c1c7 cells assessed as induction of NAD(P)H:quinone reductase activity at 6.25 uM pretreated for 1 hr followed by co-treatment with PI3K inhibitor wortmannin for 24 hrs. The data set is classed as cell-based.
For data set [9], the system named is BEAS-2B. The data set can be described thus: Downregulation of Keap1 protein levels in human BEAS2B cells at 50 to 100 uM after 18 hrs by immunoblot analysis. The data set is classed as functional, cell-based.
The target in data set [10] is T2, Nuclear factor erythroid 2-related factor 2 (Homo sapiens). The data set can be described thus: Activation of Nrf2 in human BEAS2B cells assessed as upregulation of GSH levels at 5 uM measured over 1 to 24 hrs. The data set is classed as cell-based.
Data set [11] shares this target. The data set can be described thus: Activation of Nrf2 in human BEAS2B cells assessed as upregulation of gamma-GCS protein expression at 3.12 to 25 uM after 12 hrs by immunoblot analysis. The data set is classed as cell-based.
For data set [12] the target is unchanged. The data set can be described thus: Activation of Nrf2 in human BEAS2B cells assessed as upregulation of Nrf2 protein expression at 6.25 uM pretreated for 1 hr followed by co-treatment with PKC inhibitor Ro-31-8220 for 18 hrs by immunoblot analysis. In kind it is cell-based.
Data set [13] has as its system BEAS-2B. The data set can be described thus: Effect on Keap1 protein levels in human BEAS2B cells at <= 20 uM after 18 hrs by immunoblot analysis. In kind it is functional, cell-based.
Data set [14] has as its target T2, Nuclear factor erythroid 2-related factor 2 (Homo sapiens). The data set can be described thus: Induction of Nrf2 translocation from cytoplasm to nucleus in human BEAS2B cells at 6.25 uM after 18 hrs by immunoblot analysis. The data set is classed as cell-based.
Data set [15] has the same target. Nature of the data set: Activation of Nrf2 in human BEAS2B cells assessed as upregulation of Nrf2 protein expression at 6.25 uM pretreated for 1 hr followed by co-treatment with PERK inhibitor GSK2606414 for 18 hrs by immunoblot analysis. The data set is classed as cell-based.
Data set [16] deals with T1, Nuclear factor erythroid 2-related factor 2 (Mus musculus). Nature of the data set: Activation of Nrf2 in mouse Heap1c1c7 cells assessed as induction of NAD(P)H:quinone reductase activity at 6.25 uM pretreated for 1 hr followed by co-treatment with p38 MAPK inhibitor SB203580 for 24 hrs. The data set is classed as cell-based.
Data set [17] addresses T2, Nuclear factor erythroid 2-related factor 2 (Homo sapiens). The data set can be described thus: Activation of Nrf2 in human MDA-MB-231 cells assessed as upregulation of gamma-GCS protein expression after 16 hrs by immunoblot analysis. The data set is classed as cell-based.

The structures appear in SMILES notation. The source made the active and inactive calls. No cut-off for these calls is given here.

Turning to `COc1ccc(-c2coc3cc(OC)cc(O)c3c2=O)cc1` [4',7-DIMETHOXY-5-HYDROXYGENISTEIN], the result in data set [1], in data set [3], in data set [4], in data set [5], in data set [12] and in data set [13] was inactive. Moreover, the outcome in data set [15] and in data set [16] was inactive. The Activity entry in [2] was “Non-Toxic”; in data set [6], “Dose-dependent effect”; in data set [7] it was “Dose-dependent effect”; in data set [17], “Dose-dependent effect”. The result in data set [8], in [9], in data set [10], in [11] and in [14] was Active.
